The target in test [1] is T1, human vasopressin V1b receptor (Homo sapiens, UniProt P47901).
T1 sequence (P47901 1-424): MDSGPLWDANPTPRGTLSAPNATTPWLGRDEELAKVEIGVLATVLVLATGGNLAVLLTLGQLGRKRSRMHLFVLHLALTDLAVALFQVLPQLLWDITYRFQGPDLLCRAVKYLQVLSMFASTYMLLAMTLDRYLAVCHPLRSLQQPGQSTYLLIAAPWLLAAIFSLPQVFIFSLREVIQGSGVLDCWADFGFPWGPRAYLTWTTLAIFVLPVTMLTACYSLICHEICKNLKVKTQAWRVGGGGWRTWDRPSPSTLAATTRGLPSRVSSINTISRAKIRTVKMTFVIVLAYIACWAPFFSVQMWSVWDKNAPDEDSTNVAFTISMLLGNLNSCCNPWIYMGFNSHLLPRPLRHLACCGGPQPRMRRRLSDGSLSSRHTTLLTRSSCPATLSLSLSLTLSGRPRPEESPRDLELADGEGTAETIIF
Nature of the test: biochemical.

The target of test [2] is human vasopressin V1a receptor (Homo sapiens, UniProt P37288). Put plainly: Vasopressin V1a receptor binding assay (125I-AVP displacement, CHO-K1 membranes). The note with it: selectivity quotient, human V1a vs human V1b receptor binding.
Chain of human vasopressin V1a receptor (P37288 whole entry): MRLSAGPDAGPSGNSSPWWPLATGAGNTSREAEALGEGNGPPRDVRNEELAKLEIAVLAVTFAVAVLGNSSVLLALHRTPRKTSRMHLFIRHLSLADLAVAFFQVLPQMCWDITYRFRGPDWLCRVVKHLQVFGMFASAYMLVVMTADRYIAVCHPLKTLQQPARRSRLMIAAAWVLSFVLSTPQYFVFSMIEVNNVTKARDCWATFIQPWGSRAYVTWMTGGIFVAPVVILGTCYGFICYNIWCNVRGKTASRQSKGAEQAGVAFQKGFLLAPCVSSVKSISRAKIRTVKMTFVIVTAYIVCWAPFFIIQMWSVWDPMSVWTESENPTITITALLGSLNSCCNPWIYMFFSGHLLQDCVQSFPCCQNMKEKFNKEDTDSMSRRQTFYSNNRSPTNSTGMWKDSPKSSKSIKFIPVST

Experimental findings from US9840495B2, “Oxindole derivatives carrying a piperidyl-substituted azetidinyl substituent and use thereof for treating vasopressine-related diseases” (AbbVie Deutschland GmbH & Co. KG, priority 2013, dated 2017) are described below.

By Ki is commonly meant the dissociation constant of the complex between target and ligand, obtained from inhibition or displacement. Low values mean higher affinity, high ones lower affinity.

Where a name gives a salt, the structure may show the parent alone.

The molecule `COc1ccc(S(=O)(=O)N2C(=O)[C@@](NC(=O)N3CC(N4CCC(N(C)C5COC5)CC4)C3)(c3cccnc3OC)c3cc(C#N)ccc32)c(F)c1` [Example 32, (S)—N-(5-Cyano-1-((2-fluoro-4-methoxyphenyl)sulfonyl)-3-(2-methoxypyridin-3-yl)-2-oxoindolin-3-yl)-3-(4-(methyl(oxetan-3-yl)amino)piperidin-1-yl)azetidine-1-carboxamide] showed a Ki in test [1] of 1 to 10 nM. Further, the “Ki(h-V1a)/Ki(h-V1b)” value in test [2] is “+ (10-<25)”.

In turn, `COc1ncccc1[C@]1(NC(=O)N2CC(N3CCC(N(C)C4COC4)CC3)C2)C(=O)N(S(=O)(=O)c2ccc(F)cc2F)c2ccc(C#N)cc21` [Example 33, (S)—N-(5-Cyano-1-((2,4-difluorophenyl)sulfonyl)-3-(2-methoxypyridin-3-yl)-2-oxoindolin-3-yl)-3-(4-(methyl(oxetan-3-yl)amino)piperidin-1-yl)azetidine-1-carboxamide] had a Ki in test [1] of 10 to 100 nM. In test [2], the “Ki(h-V1a)/Ki(h-V1b)” value is reported as “+ (10-<25)”.

In test [1], `COc1ccc(S(=O)(=O)N2C(=O)[C@@](NC(=O)N3CC(N4CCC(N(C)C5COC5)CC4)C3)(c3cccnc3OC)c3cc(C#N)ccc32)cc1` [Example 35, (S)—N-(5-cyano-1-((4-methoxyphenyl)sulfonyl)-3-(2-methoxypyridin-3-yl)-2-oxoindolin-3-yl)-3-(4-(methyl(oxetan-3-yl)amino)piperidin-1-yl)azetidine-1-carboxamide] had a Ki of 1 to 10 nM. For the same molecule, the “Ki(h-V1a)/Ki(h-V1b)” value in test [2] is “++ (25-75)”.

`CCOc1ncccc1[C@]1(NC(=O)N2CC(N3CCC(N4CCOCC4)CC3)C2)C(=O)N(S(=O)(=O)c2ccc(OC)cn2)c2ccc(C#N)cc21` [Example 36, (S)—N-(5-Cyano-3-(2-ethoxypyridin-3-yl)-1-((5-methoxypyridin-2-yl)sulfonyl)-2-oxoindolin-3-yl)-3-(4-morpholinopiperidin-1-yl)azetidine-1-carboxamide×TFA] yielded a Ki in test [1] of 1 to 10 nM. Besides, in test [2], the “Ki(h-V1a)/Ki(h-V1b)” value is on record as “+ (10-<25)”.

In turn, `CCOc1ncccc1[C@]1(NC(=O)N2CC(N3CCC(N4CCOCC4)CC3)C2)C(=O)N(S(=O)(=O)c2ccccc2OC)c2ccc(C#N)cc21` [Example 37, (S)—N-(5-Cyano-3-(2-ethoxypyridin-3-yl)-1-((2-methoxyphenyl)sulfonyl)-2-oxoindolin-3-yl)-3-(4-morpholinopiperidin-1-yl)azetidine-1-carboxamide] came in with a Ki in test [1] of 1 to 10 nM. Further, the “Ki(h-V1a)/Ki(h-V1b)” value in test [2] was “+++ (>75)”.

Regarding `COc1ccc(S(=O)(=O)N2C(=O)[C@@](NC(=O)N3CC(N4CCC(N(C(C)C)C5COC5)CC4)C3)(c3cccnc3OC)c3cc(C#N)ccc32)c(OC)c1` [Example 38, (S)—N-(5-Cyano-1-((2,4-dimethoxyphenyl)sulfonyl)-3-(2-methoxypyridin-3-yl)-2-oxoindolin-3-yl)-3-(4-(isopropyl(oxetan-3-yl)amino)piperidin-1-yl)azetidine-1-carboxamide], in test [1], the Ki lay within 10 to 100 nM. Moreover, the “Ki(h-V1a)/Ki(h-V1b)” value in test [2] is recorded as “+ (10-<25)”.

In test [1], `CCOc1ncccc1[C@]1(NC(=O)N2CC(N3CCC(N4CC(F)(F)C4)CC3)C2)C(=O)N(S(=O)(=O)c2ccc(OC)cc2OC)c2ccc(C#N)cc21` [Example 39, (S)—N-(5-Cyano-1-((2,4-dimethoxyphenyl)sulfonyl)-3-(2-ethoxypyridin-3-yl)-2-oxoindolin-3-yl)-3-(4-(3,3-difluoroazetidin-1-yl)piperidin-1-yl)azetidine-1-carboxamide] displayed a Ki of 10 to 100 nM. The “Ki(h-V1a)/Ki(h-V1b)” value in test [2] is given as “+++ (>75)”.

`CCOc1ncccc1[C@]1(NC(=O)N2CC(N3CCC(N4CCC(F)(F)CC4)CC3)C2)C(=O)N(S(=O)(=O)c2ccc(OC)cc2OC)c2ccc(C#N)cc21` [Example 40, (S)—N-(5-Cyano-1-((2,4-dimethoxyphenyl)sulfonyl)-3-(2-ethoxypyridin-3-yl)-2-oxoindolin-3-yl)-3-(4,4-difluoro-[1,4′-bipiperidin]-1′-yl)azetidine-1-carboxamide] registered a Ki in test [1] below 1 nM. In test [2], the “Ki(h-V1a)/Ki(h-V1b)” value is listed as “+++ (>75)”.

In the case of `CCOc1ncccc1[C@]1(NC(=O)N2CC(N3CCC(N4CC(OC)C4)CC3)C2)C(=O)N(S(=O)(=O)c2ccc(OC)cc2OC)c2ccc(C#N)cc21` [Example 41, (S)—N-(5-Cyano-1-((2,4-dimethoxyphenyl)sulfonyl)-3-(2-ethoxypyridin-3-yl)-2-oxoindolin-3-yl)-3-(4-(3-methoxyazetidin-1-yl)piperidin-1-yl)azetidine-1-carboxamide], the Ki in test [1] lay in the range of 1 to 10 nM. For the same molecule, the “Ki(h-V1a)/Ki(h-V1b)” value in test [2] is “+++ (>75)”.

In the case of `CCOc1ncccc1[C@]1(NC(=O)N2CC(N3CCC(N4CCC(OC)CC4)CC3)C2)C(=O)N(S(=O)(=O)c2ccc(OC)cc2OC)c2ccc(C#N)cc21` [Example 42, (S)—N-(5-Cyano-1-((2,4-dimethoxyphenyl)sulfonyl)-3-(2-ethoxypyridin-3-yl)-2-oxoindolin-3-yl)-3-(4-methoxy-[1,4′-bipiperidin]-1′-yl)azetidine-1-carboxamide], the inhibition constant Ki in test [1] was in the range of 1 to 10 nM. Moreover, the “Ki(h-V1a)/Ki(h-V1b)” value in test [2] is listed as “+++ (>75)”.

In test [1], `CCOc1ncccc1[C@]1(NC(=O)N2CC(N3CCC(N4CC(O)C4)CC3)C2)C(=O)N(S(=O)(=O)c2ccc(OC)cc2OC)c2ccc(C#N)cc21` [Example 43, (S)—N-(5-Cyano-1-((2,4-dimethoxyphenyl)sulfonyl)-3-(2-ethoxypyridin-3-yl)-2-oxoindolin-3-yl)-3-(4-(3-hydroxyazetidin-1-yl)piperidin-1-yl)azetidine-1-carboxamide] displayed a Ki of 1 to 10 nM. The “Ki(h-V1a)/Ki(h-V1b)” value in test [2] is recorded as “+++ (>75)”.

`CCOc1ncccc1[C@]1(NC(=O)N2CC(N3CCC(N4CCC(O)CC4)CC3)C2)C(=O)N(S(=O)(=O)c2ccc(OC)cc2OC)c2ccc(C#N)cc21` [Example 44, (S)—N-(5-Cyano-1-((2,4-dimethoxyphenyl)sulfonyl)-3-(2-ethoxypyridin-3-yl)-2-oxoindolin-3-yl)-3-(4-hydroxy-[1,4′-bipiperidin]-1′-yl)azetidine-1-carboxamide] yielded a Ki in test [1] below 1 nM. For the same molecule, the “Ki(h-V1a)/Ki(h-V1b)” value in test [2] is “+++ (>75)”.

As to `COc1ccc(S(=O)(=O)N2C(=O)[C@@](NC(=O)N3CC(N4CCC(N5CCOCC5)CC4)C3)(c3cc(OC)ccc3OC)c3cc(C#N)ccc32)c(OC)c1` [Example 45, (S)—N-(5-Cyano-3-(2,5-dimethoxyphenyl)-1-((2,4-dimethoxyphenyl)sulfonyl)-2-oxoindolin-3-yl)-3-(4-morpholinopiperidin-1-yl)azetidine-1-carboxamide], the Ki in test [1] was below 1 nM. Moreover, the “Ki(h-V1a)/Ki(h-V1b)” value in test [2] is “+ (10-<25)”.

`COc1ccc(S(=O)(=O)N2C(=O)[C@@](NC(=O)N3CC(N4CCC(N(C)C5COC5)CC4)C3)(c3cc(OC)ccc3OC)c3cc(C#N)ccc32)c(OC)c1` [Example 46, (S)—N-(5-Cyano-3-(2,5-dimethoxyphenyl)-1-((2,4-dimethoxyphenyl)sulfonyl)-2-oxoindolin-3-yl)-3-(4-(methyl(oxetan-3-yl)amino)piperidin-1-yl)azetidine-1-carboxamide] had a Ki in test [1] below 1 nM. Moreover, the “Ki(h-V1a)/Ki(h-V1b)” value in test [2] is recorded as “++ (25-75)”.
